Values joined by “and” are separate entries in the source; they are usually repeats but may differ in a detail not shown here. Equal values may be shown once. Where a name gives a salt, the structure may show the parent alone.
Legend:
OAT3 = target: T1, OAT3 (Homo sapiens, UniProt Q8TCC7); experiment: Substrate of OAT3, uptake in HEK293 cells; conditions: probe substrate 1 μM
T1 sequence (Q8TCC7 1-542): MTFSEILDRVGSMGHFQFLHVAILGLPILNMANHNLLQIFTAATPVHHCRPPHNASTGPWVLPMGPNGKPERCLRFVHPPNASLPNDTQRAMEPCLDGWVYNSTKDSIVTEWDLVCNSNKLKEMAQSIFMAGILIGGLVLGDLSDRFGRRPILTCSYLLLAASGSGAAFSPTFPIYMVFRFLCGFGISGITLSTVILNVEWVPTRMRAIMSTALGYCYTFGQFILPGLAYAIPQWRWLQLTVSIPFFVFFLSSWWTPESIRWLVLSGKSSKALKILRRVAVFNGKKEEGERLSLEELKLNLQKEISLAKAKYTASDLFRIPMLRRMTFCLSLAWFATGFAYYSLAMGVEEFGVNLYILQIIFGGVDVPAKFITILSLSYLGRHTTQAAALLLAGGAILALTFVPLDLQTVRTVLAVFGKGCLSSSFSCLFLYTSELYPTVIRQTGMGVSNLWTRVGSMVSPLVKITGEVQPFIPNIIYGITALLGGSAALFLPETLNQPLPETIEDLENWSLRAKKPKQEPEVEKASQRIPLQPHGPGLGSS
Source text: (§1) Vector-transfected HEK cells were used as a control.

OCT2 [1] = target: T2, OCT2 (Homo sapiens, UniProt O15244); experiment: Substrate of OCT2, uptake in HEK293 cells; conditions: probe substrate 1 μM
T2 sequence (O15244 1-555): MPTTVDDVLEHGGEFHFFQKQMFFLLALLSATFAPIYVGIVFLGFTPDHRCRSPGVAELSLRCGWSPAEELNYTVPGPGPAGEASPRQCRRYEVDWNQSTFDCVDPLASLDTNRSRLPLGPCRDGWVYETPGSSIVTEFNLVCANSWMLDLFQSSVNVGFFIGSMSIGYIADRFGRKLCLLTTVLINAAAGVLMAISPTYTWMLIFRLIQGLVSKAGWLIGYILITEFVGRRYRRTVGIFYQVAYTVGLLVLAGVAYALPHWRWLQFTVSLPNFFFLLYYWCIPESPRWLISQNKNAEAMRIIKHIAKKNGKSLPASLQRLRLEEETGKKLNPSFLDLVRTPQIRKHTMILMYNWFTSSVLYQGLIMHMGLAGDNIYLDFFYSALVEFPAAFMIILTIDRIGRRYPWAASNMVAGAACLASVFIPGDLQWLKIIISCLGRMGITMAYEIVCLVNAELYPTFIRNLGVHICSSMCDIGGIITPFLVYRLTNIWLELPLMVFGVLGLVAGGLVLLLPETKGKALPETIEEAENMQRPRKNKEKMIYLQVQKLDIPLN
Source text: as §1

OCT2 [2] = target: T2, OCT2; experiment: OCT2 inhibition, MPP+ uptake in transfected HEK cells; conditions: no inhibitor
CYP2B6 mRNA = CYP2B6 mRNA induction in human hepatocytes (qPCR); conditions: phenobarbital 1,000 μM, flumazenil 10 μM
Description: Plateable and inducible cryopreserved human hepatocytes were thawed and isolated in human hepatocyte thawing medium.
All experiments were performed in triplicate.
After induction treatment, CYP mRNA expression was measured by qPCR. Total RNA was isolated from the treated cells using the RNeasy® mini kit (Qiagen, Valencia, CA, USA) and treated with RNase-free DNase (Qiagen) following the manufacturer's protocols. The concentration of RNA was determined using a Qubit® Fluorometer with a Qubit RNA HS assay kit (Invitrogen). cDNA was synthesized from up to […] of the total RNA harvested from the cells using a QuantiTect® RT kit (Qiagen). Analysis of CYP gene expression by qPCR (Table 3) was performed using the LightCycler® 480 II System (Roche Diagnostics Corporation, Indianapolis, IN, USA).
Relative mRNA was expressed as the fold-increase calculated from the normalized mRNA level (2^−ΔΔCt) relative to vehicle control. The percentage of mRNA fold-increase relative to positive control was calculated using the following equation:
% Induction relative to positive control=100×(mRNATA−mRNAvehicle)/(mRNApositive control−mRNAvehicle)

human hepatocytes = experiment: Cell viability after CYP induction treatment (MTS); conditions: controls at induction concentrations
Description: Plateable and inducible cryopreserved human hepatocytes were thawed and isolated in human hepatocyte thawing medium. […] After attachment (4 hours), the medium was changed to fresh hepatocyte culture medium for overnight cell recovery. […] A positive control (100 μM chlorpromazine) was treated in parallel.
After the CYP induction treatment, the cells were used for cell viability assay. The viability of cells (expressed as the percentage of MTS absorbance relative to vehicle control) was measured as described herein.

OATP1B1 = OATP1B1 (Homo sapiens, UniProt Q9Y6L6); experiment: OATP1B1 inhibition, atorvastatin uptake in transfected HEK cells
OATP1B3 = OATP1B3 (Homo sapiens, UniProt Q9NPD5); experiment: OATP1B3 inhibition, atorvastatin uptake in transfected HEK cells; conditions: for Influx Rate of […] Atorvastatin (5 min): OATP1B3-HEK Cells
[3] = Rat drug-drug interaction study TDF + AMX0035: urine recovery; assay type: in vivo; conditions: for Amount Recovered: male Sprague Dawley rats, oral, total urine, 24 hour collection
Description: Total urine recovery data for Tenofovir, TDF, and PB was calculated for the 24 hour collection period on Days 1 and 5. […] The reported urine recovery data included amount recovered (ng) and percent recovered (%) for […]. Individual and mean Tenofovir, TDF, and PB urine recovery data were presented with SD, reported to three significant figures, and CV %, reported to one decimal place.

[4] = rat, in vivo
Description: This study was comprised of one group of three male CD® (Sprague-Dawley) IGS rats.
Clinical observations were recorded approximately 1 hour post-dose on Days 1-4 and twice on Day 5, once post-AMX0035 administration and once post-TDF administration. Body weight measurements were recorded prior to randomization and then daily through the end of the study.
Nominal dose values and nominal sampling times were used for calculations. […] Pharmacokinetic analysis included the determination of Cmax, Tmax, AUClast, Tlast, and AUC0-24.

MATE1 = target: T3, MATE1 (Homo sapiens, UniProt Q96FL8); experiment: MATE1 inhibition, metformin uptake in transfected HEK cells; conditions: no inhibitor
T3 sequence (Q96FL8 1-570): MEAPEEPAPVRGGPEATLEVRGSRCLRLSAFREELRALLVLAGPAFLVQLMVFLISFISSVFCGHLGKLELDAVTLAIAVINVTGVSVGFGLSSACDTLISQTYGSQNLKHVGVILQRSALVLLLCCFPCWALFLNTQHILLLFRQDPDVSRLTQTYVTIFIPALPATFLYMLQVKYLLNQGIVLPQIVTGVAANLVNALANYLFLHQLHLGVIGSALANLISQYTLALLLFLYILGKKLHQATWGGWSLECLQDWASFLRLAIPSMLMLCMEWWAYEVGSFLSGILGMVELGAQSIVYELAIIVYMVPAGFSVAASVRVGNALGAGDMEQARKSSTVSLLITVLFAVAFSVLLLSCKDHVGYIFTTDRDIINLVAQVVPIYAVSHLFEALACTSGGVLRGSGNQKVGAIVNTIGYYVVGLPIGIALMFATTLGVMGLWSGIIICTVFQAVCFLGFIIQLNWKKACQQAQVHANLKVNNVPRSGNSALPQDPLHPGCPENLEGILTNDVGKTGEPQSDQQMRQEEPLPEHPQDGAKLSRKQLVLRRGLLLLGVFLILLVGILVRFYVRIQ

MATE2K = MATE2K (Homo sapiens, UniProt Q86VL8); experiment: MATE2K inhibition, metformin uptake in transfected HEK cells; conditions: no inhibitor
[5] = Vector Control Cells, replicates

OATP1B3, sequence (Q9NPD5 whole entry): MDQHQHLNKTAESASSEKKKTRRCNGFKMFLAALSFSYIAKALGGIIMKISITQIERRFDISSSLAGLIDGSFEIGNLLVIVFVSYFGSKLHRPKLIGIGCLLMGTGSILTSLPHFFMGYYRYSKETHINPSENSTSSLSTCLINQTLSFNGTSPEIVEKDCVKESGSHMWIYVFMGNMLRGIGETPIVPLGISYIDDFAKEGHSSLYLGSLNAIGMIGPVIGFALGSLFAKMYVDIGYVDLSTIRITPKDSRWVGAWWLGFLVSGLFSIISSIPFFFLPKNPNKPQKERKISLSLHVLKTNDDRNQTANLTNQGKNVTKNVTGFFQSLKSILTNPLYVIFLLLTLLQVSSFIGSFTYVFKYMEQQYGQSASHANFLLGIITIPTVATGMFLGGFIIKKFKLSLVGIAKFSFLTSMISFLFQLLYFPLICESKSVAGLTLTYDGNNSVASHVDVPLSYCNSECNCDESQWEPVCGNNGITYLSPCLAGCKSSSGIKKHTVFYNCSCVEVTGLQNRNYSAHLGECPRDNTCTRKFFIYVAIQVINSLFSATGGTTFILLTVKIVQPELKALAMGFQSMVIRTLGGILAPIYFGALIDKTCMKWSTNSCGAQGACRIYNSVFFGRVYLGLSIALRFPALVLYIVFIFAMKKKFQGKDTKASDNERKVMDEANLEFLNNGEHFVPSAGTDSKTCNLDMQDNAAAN
OATP1B1, sequence (Q9Y6L6 whole entry): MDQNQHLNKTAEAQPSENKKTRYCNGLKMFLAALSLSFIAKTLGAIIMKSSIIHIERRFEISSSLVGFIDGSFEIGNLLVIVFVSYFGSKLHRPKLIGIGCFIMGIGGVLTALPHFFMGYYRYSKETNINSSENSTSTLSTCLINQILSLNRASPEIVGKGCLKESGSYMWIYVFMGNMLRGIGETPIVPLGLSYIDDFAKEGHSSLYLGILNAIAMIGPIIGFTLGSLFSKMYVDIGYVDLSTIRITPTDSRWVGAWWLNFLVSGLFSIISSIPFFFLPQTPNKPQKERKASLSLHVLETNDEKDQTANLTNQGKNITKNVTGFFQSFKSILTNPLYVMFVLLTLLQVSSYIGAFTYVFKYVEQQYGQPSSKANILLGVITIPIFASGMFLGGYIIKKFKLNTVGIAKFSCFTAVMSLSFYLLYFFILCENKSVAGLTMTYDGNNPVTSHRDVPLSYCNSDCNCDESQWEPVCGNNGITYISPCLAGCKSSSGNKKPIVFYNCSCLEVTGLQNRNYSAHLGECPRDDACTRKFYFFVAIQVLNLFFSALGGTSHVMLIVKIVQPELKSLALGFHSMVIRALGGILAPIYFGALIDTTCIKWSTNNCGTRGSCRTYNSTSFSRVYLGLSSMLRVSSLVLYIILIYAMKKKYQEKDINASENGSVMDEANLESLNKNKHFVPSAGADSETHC
MATE2K, sequence (Q86VL8 1-566 isoform Q86VL8-3): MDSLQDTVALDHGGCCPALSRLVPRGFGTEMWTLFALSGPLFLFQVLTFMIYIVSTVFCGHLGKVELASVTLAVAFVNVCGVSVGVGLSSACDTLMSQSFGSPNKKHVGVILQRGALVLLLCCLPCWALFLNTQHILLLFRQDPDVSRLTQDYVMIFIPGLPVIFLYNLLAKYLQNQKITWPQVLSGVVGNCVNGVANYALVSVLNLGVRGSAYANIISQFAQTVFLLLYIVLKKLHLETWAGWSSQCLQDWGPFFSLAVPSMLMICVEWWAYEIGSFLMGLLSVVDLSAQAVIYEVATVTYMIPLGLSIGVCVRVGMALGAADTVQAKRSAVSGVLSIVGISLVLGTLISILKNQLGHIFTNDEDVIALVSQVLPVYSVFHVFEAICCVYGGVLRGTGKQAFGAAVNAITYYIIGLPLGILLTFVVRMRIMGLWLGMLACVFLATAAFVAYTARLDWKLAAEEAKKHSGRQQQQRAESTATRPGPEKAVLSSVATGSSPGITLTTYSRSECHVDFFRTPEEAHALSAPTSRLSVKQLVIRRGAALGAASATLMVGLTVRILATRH

C[C@]12CC[C@@H]3c4ccc(OS(=O)(=O)O)cc4CC[C@H]3[C@@H]1CCC2=O [3H-estrone-3-sulfate]
Fold uptake over the vector control by OAT3 (OAT3): 25.9 fold

CN(C)C(N)=NC(=N)N [14C-metformin]
Fold uptake over the vector control by OCT2 (OCT2 [1]): 43.7 fold

C[n+]1ccc(-c2ccccc2)cc1 [MPP+, 1-methyl-4-phenylpyridinium]
Net Influx Rate of 5 μM MPP+ (OCT2 [2]; OCT2): 847 pmol/mg protein/minute
Influx rate ratio (OCT2 over vector control) (OCT2 [2]): 48.9
Influx Rate of 5 μM MPP+ (2 min) (OCT2 [2]; OCT2-HEK Cells, Average): 864 pmol/mg protein/minute
Influx Rate of 5 μM MPP+ (2 min) (OCT2 [2]; OCT2-HEK Cells, replicates): 896 pmol/mg protein/minute and 833 pmol/mg protein/minute
Influx Rate Ratio of MPP+ (OCT2 [2]; OCT2 over vector control): 48.9
Influx Rate of 5 μM MPP+ (2 min) (OCT2 [2]; Vector Control Cells, Average): 17.7 pmol/mg protein/minute
Influx Rate of 5 μM MPP+ (2 min) (OCT2 [2]; [5]): 19.0 pmol/mg protein/minute and 16.3 pmol/mg protein/minute

CCC1(c2ccccc2)C(=O)NC(=O)NC1=O [Phenobarbital, phenobarbital]
% induction relative to positive control (CYP2B6 mRNA; donor 1): 100%
CYP2B6 mRNA fold-increase, mean (CYP2B6 mRNA; donor 1): 21.8 fold
% induction relative to positive control (CYP2B6 mRNA; donor 2): 100%
CYP2B6 mRNA fold-increase, mean (CYP2B6 mRNA; donor 2): 39.6 fold
% induction relative to positive control (CYP2B6 mRNA; donor 3): 100%
CYP2B6 mRNA fold-increase, mean (CYP2B6 mRNA; donor 3): 7.36 fold
% MTS absorbance relative to vehicle control (human hepatocytes; donor 1): 97.7%
Formazan absorbance, mean (n=6) (human hepatocytes; donor 1): 0.417
% MTS absorbance relative to vehicle control (human hepatocytes; donor 2): 98.8%
Formazan absorbance, mean (n=6) (human hepatocytes; donor 2): 0.504
% MTS absorbance relative to vehicle control (human hepatocytes; donor 3): 108%
Formazan absorbance, mean (n=6) (human hepatocytes; donor 3): 0.320

CO[C@H]1/C=C/O[C@@]2(C)Oc3c(C)c([O-])c4c(O)c(cc(O)c4c3C2=O)NC(=O)/C(C)=C\C=C\[C@H](C)[C@H](O)[C@@H](C)[C@@H](O)[C@@H](C)[C@H](OC(C)=O)[C@@H]1C.[Na+] [RSV, rifamycin SV]
Influx Rate of […] Atorvastatin (5 min) (OATP1B1; 10 μM RSV, OATP1B1-HEK Cells, Average): 0.702 pmol/mg protein/minute
Influx Rate of […] Atorvastatin (5 min) (OATP1B1; 10 μM RSV, OATP1B1-HEK Cells, replicates): 0.724 pmol/mg protein/minute and 0.681 pmol/mg protein/minute
Influx Rate of […] Atorvastatin (5 min) (OATP1B1; 10 μM RSV, Vector Control Cells, Average): 0.518 pmol/mg protein/minute
Influx Rate of […] Atorvastatin (5 min) (OATP1B1; 10 μM RSV, Vector Control Cells, replicates): 0.496 pmol/mg protein/minute and 0.541 pmol/mg protein/minute
Net Influx Rate of […] Atorvastatin (OATP1B1; OATP1B1, 10 μM RSV): 0.184 pmol/mg protein/minute
Percentage Inhibition (OATP1B1; OATP1B1, 10 μM RSV): 96.7%
% inhibition of atorvastatin uptake (OATP1B1; known inhibitor): 96.7%
Influx Rate of […] Atorvastatin (5 min) (OATP1B3; 10 μM RSV, Average): 0.573 pmol/mg protein/minute
Influx Rate of […] Atorvastatin (5 min) (OATP1B3; 10 μM RSV, replicates): 0.576 pmol/mg protein/minute and 0.571 pmol/mg protein/minute
Net Influx Rate of […] Atorvastatin (OATP1B3; OATP1B3, 10 μM RSV): 0.0551 pmol/mg protein/minute
Percentage Inhibition (OATP1B3; OATP1B3, 10 μM RSV): 98.1%
% inhibition of atorvastatin uptake (OATP1B3; known inhibitor): 98.1%

CC(C)OC(=O)OCOP(=O)(CO[C@H](C)Cn1cnc2c(N)ncnc21)OCOC(=O)OC(C)C [TDF, Tenofovir Disoproxil Fumarate]
Urine concentrations ([3]; male, Sprague-Dawley, rat, in vivo): Urine concentrations for PB analysis in all animals on Day 1, for TUDCA analysis in all animals on Days 1 and 5, and for TDF analysis in two animals on Day 1 and one animal on Day 5 were BLQ (<20 mg/mL) so no recovery data was calculated.
Prodrug in plasma [4]: No prodrug (TDF) was detected in plasma

C[C@H](Cn1cnc2c(N)ncnc21)OCP(=O)(O)O [Tenofovir]
Amount Recovered ([3]; Day 1, TDF only 25 mg/kg, individual animals): 77300 ng and 63200 ng and 234000 ng
Amount Recovered ([3]; Day 1, TDF only 25 mg/kg, mean): 125000 ng
Amount Recovered ([3]; Day 5, AMX0035 + TDF 840/25 mg/kg, individual animals): 764000 ng and 296000 ng and 99500 ng
Amount Recovered ([3]; Day 5, AMX0035 + TDF 840/25 mg/kg, mean): 386000 ng
Fold increase of mean AUClast in the presence of AMX0035 [4]: 2.17 fold
Fold increase of mean Cmax in the presence of AMX0035 [4]: 1.24 fold
Individual Tmax [4]: 15 min

CN(C)C(=N)N=C(N)N [metformin]
Net Influx Rate of 50 μM Metformin (MATE1; MATE1): 572 pmol/mg protein/minute
Influx rate ratio (MATE1 over vector control) (MATE1): 43.4
Influx Rate of 50 μM Metformin (10 min) (MATE1; MATE1-HEK Cells, Average): 586 pmol/mg protein/minute
Influx Rate of 50 μM Metformin (10 min) (MATE1; MATE1-HEK Cells, replicates): 515 pmol/mg protein/minute and 656 pmol/mg protein/minute
Influx Rate Ratio of metformin (MATE1; MATE1 over vector control): 43.4
Influx Rate of 50 μM Metformin (10 min) (MATE1; Vector Control Cells, Average): 13.5 pmol/mg protein/minute
Influx Rate of 50 μM Metformin (10 min) (MATE1; [5]): 15.6 pmol/mg protein/minute and 11.3 pmol/mg protein/minute
Net Influx Rate of 50 μM Metformin (MATE2K; MATE2K): 36.1 pmol/mg protein/minute
Influx rate ratio (MATE2K over vector control) (MATE2K): 2.70
Influx Rate of 50 μM Metformin (10 min) (MATE2K; MATE2K HEK Cells, Average): 57.4 pmol/mg protein/minute
Influx Rate of 50 μM Metformin (10 min) (MATE2K; MATE2K HEK Cells, replicates): 54.5 pmol/mg protein/minute and 60.2 pmol/mg protein/minute
Influx Rate Ratio of metformin (MATE2K; MATE2K over vector control): 2.70
Influx Rate of 50 μM Metformin (10 min) (MATE2K; Vector Control Cells, Average): 21.3 pmol/mg protein/minute
Influx Rate of 50 μM Metformin (10 min) (MATE2K; [5]): 19.6 pmol/mg protein/minute and 22.8 pmol/mg protein/minute

— patent US20240139211A1, “METHODS AND COMPOSITIONS FOR TREATING AMYOTROPHIC LATERAL SCLEROSIS” (Amylyx Pharmaceuticals, Inc., priority 2022, published 2024)
